# Test system: alpha₃ isoform of rat (Na⁺+K⁺)-ATPase
# Experiment: Displacement of [3H]-ouabain, alpha3 isoform, rat brain preparation
# Type: binding
# Settings: not given
# Description: The activity of the compounds of formula II has been evaluated with the binding test on the alpha₁ and alpha₃ isoforms of rat (Na⁺+K⁺)-ATPase in rat kidney and rat brain, according to the method described by Noel F. et al., Biochemical Pharmacology, 40(12), pp 2611-2616, (1990) (see Example 2).
# Evaluation of the interaction with the alpha₁ and alpha₃ isoforms of rat (Na⁺+K⁺)-ATPase
# The method of Noel F. et al., Biochemical Pharmacology, 40(12), pp. 2611-2616, (1990) was used to evaluate the displacement of [³H]-ouabain in preparations of rat kidney and rat brain, containing various concentrations of nerifolin, 3beta-(alpha-L-tevetopyranosyloxy)-14-hydroxy-17beta-(4-pyridazil)-5beta,14beta-androstane (compound R), compound 5 and compound 6 and the corresponding genins, respectively, digitoxygenin, 3beta,14-dihydroxy-17beta-(4-pyridazil)-5beta,14beta-androstane (genin 1), 3beta,14-dihydroxy-17beta-(4-pyridazinyl-2-N-oxide)-5beta,14beta-androstane (genin 2) and 3beta,14-dihydroxy-17beta-(4-pyridazinyl-1-N-oxide)-5beta,14beta-androstane (genin 3).
row,Compound,K₁(alpha₁)/K₁(alpha₃)
1,"C[C@]12CC[C@H](O)C[C@H]1CC[C@@H]1[C@@H]2CC[C@]2(C)[C@@H](C3=CC(=O)OC3)CC[C@]12O [Digitoxygenin, digitoxygenin]",37

# Same assay, conditions: selectivity index, alpha₁ (rat kidney) versus alpha₃ (rat brain)
row,Compound,K₁(alpha₁)/K₁(alpha₃)
1,"CO[C@H]1[C@H](O)[C@H](O[C@H]2CC[C@@]3(C)[C@H](CC[C@@H]4[C@@H]3CC[C@]3(C)[C@@H](c5ccn[n+]([O-])c5)CC[C@]43O)C2)O[C@@H](C)[C@@H]1O [Compound 5, 3beta-(alfa-L-tevetopyranosyloxy)-14-hydroxy-17beta-(4-pyridazinyl-2-N-oxide)-5beta,14beta-androstane]",≧1258
2,"CO[C@H]1[C@H](O)[C@H](O[C@H]2CC[C@@]3(C)[C@H](CC[C@@H]4[C@@H]3CC[C@]3(C)[C@@H](c5cc[n+]([O-])nc5)CC[C@]43O)C2)O[C@@H](C)[C@@H]1O [Compound 6, 3beta-(alfa-L-tevetopyranosyloxy)-14-hydroxy-17beta-(4-pyridazinyl-1-N-oxide)-5beta,14beta-androstane]",≧1000
3,"CO[C@H]1[C@H](O)[C@H](O[C@H]2CC[C@@]3(C)[C@H](CC[C@@H]4[C@@H]3CC[C@]3(C)[C@@H](c5ccnnc5)CC[C@]43O)C2)O[C@@H](C)[C@@H]1O [Compound R, 3beta-(alpha-L-tevetopyranosyloxy)-14-hydroxy-17beta-(4-pyridazil)-5beta,14beta-androstane]",63
4,"C[C@]12CC[C@H](O)C[C@H]1CC[C@@H]1[C@@H]2CC[C@]2(C)[C@@H](c3ccnnc3)CC[C@]12O [Genin 1, 3beta,14-dihydroxy-17beta-(4-pyridazil)-5beta,14beta-androstane]",96
5,"CO[C@H]1[C@H](O)[C@H](O[C@H]2CC[C@@]3(C)[C@H](CC[C@@H]4[C@@H]3CC[C@]3(C)[C@@H](C5=CC(=O)OC5)CC[C@]43O)C2)O[C@@H](C)[C@@H]1O [Nerifolin, nerifolin]",90

# From patent EP0551953A2, “17-(Pyridazine-N-oxide)-substituted steroidal compounds active on the cardiovascular system” (ZAMBON GROUP S.p.A., priority 1992, dated 1993)
